Experimental findings from patent US6623933B1 (priority 1999, dated 2003) are described below.

Some targets named below: NR1/NR2D (NR1100) (Rattus norvegicus, UniProt P35439+Q62645); NR1/NR2B (NR1100) (Rattus norvegicus, UniProt P35439+Q00960); NR1/NR2A (NR1100) (Rattus norvegicus, UniProt P35439+Q00959).
The target in a further assay is T1, GluR1 AMPA receptor (Rattus norvegicus, UniProt P19490).
T1 construct: expressed in transfected cells; host or cells: Xenopus oocytes injected with GluR1 cRNA
In words: Kainate-induced currents, Xenopus oocytes injected with GluR1 cRNA. To be noted: GluR1, steroid 100 μM; for Percentage change in kainate response: 100 μM kainate, −100 mV. Format: cell-based. From the text:
(§1) Plasmids were obtained from the following individuals: Dr. Suzanne Zukin (Albert Einstein College of Medicine, Bronx, N.Y.), NR1100; Dr. Shigetada Nakanishi (Kyoto University Faculty of Medicine, Kyoto, Japan), NR2A; Dr. Stephen Heinemann (Salk Institute, San Diego, Calif.), GluR1 (flop), GluR3 (flop), and GluR6. Plasmids were linearized with BamH1 (NR1100), XhoI (NR2A, GluR1, GluR3) or XbaI (GluR6) prior to in vitro transcription with T3 (GluR1, GluR3, GluR6) or T7 (NR1100, NR2A) RNA polymerase using the Message Machine kit (Ambion, Austin, Tex.). […] RNA solutions (50-70 nl) were injected into oocytes for delivery of NR1100 (5 ng), NR1100:NR2A (1:10 ng), GluR1 (5 ng). GluR3 (5 ng), or GluR6 (20 ng). Oocytes were incubated in ND96 at 18-20° C. for 3-7 days prior to electrophysiological recording.
(§2) Steroid solutions were prepared as 70-100 mM frozen stocks in dimethyl sulfoxide (DMSO). The final DMSO concentration of all recording solutions was between 0.1% to 0.5% and was constant within an experiment.
(§3) Perfusion control and data acquisition were carried out using an automated oocyte electrophysiology workstation that was developed for the rapid collection of concentration-response data and real-time waveform analysis (Yaghoubi et al., Soc. Neurosci. Abstr. 20: 1109 (1995)). This system is implemented on a Macintosh IIci computer (Apple Computer, Cupertino, Calif.) equipped with MacA-DIOS II data acquisition and control hardware (GW Instruments, Somerville, Mass.). Drug application is controlled by the computer through a series of valves, using custom-written software based on the SuperScope II development environment, improving the efficiency and reproducibility of data collection. Experiments were carried out using an Axoclamp-2A voltage clamp amplifier (Axon Instruments, Foster City, Calif.) in two-electrode voltage clamp mode. Intracellular microelectrodes (1-3 MΩ) were filled with 3 M KCl. […] Membrane potential was clamped at −60 to −70 mV and stepped to −100 mV at the start of data acquisition unless otherwise stated. […] Current and voltage recordings were digitized at 100 Hz for analysis. GluR6 injected oocytes were treated for 10 min with 10 μg/ml concanavalin A to prevent fast desensitization.
(§4) Results are expressed as mean±S.E.M. Statistical comparisons were made using Student's t-test.

A further assay deals with T2, GluR6 kainate receptor (Rattus norvegicus, UniProt P42260).
T2 construct: expressed in transfected cells; host or cells: Xenopus oocytes injected with GluR6 cRNA (concanavalin A treated)
In words: Kainate-induced currents, Xenopus oocytes injected with GluR6 cRNA. Format: cell-based. To be noted: GluR6, steroid 100 μM; for Percentage change in kainate response: 10 μM kainate, −100 mV.
Source text: as §1, §2, §3, §4

The next assay concerns the target T3, GluR3 AMPA receptor (Rattus norvegicus, UniProt P19492).
T3 construct: expressed in transfected cells; host or cells: Xenopus oocytes injected with GluR3 cRNA
In words: Kainate-induced currents, Xenopus oocytes injected with GluR3 cRNA. Particulars: GluR3, steroid 100 μM; for Percentage change in kainate response: 100 μM kainate, −100 mV. Format: cell-based.
Source text: as §1, §2, §3, §4

Assay [1] deals with T4, NR1100+NR2A NMDA receptor (Rattus norvegicus, UniProt P35439+Q00959).
T4 construct: expressed in transfected cells; host or cells: Xenopus oocytes co-injected with NR1100 and NR2A cRNA
Nature of the assay: NMDA-induced currents, Xenopus oocytes, Example 1. Format: cell-based. To be noted: NR1100 + NR2A; steroid 100 μM; 100 μM NMDA; −100 mV.
Source text: as §1, §2, §3, §4

In another assay the target is NR1101/NR2A (Rattus norvegicus, UniProt P35439+Q00959). Also noted: agonist Emax: dose or concentration left out as unconfirmed. Particulars: NR1101/NR2A.
Another assay addresses NR1/NR2C (NR1100) (Rattus norvegicus, UniProt P35439+Q00961). To be noted: NR1/NR2C; for pEC50: read-out: agonist EC50.
The target in a further assay is NR1011/NR2A (Rattus norvegicus, UniProt P35439+Q00959). Also noted: agonist Emax: dose or concentration left out as unconfirmed. Particulars: NR1011/NR2A.
For another assay, the target named is NR1000/NR2A (Rattus norvegicus, UniProt P35439+Q00959). On the set-up: agonist Emax: dose or concentration left out as unconfirmed. To be noted: NR1000/NR2A.
A further assay has as its target NR1111/NR2A (Rattus norvegicus, UniProt P35439+Q00959). On the set-up: agonist Emax: dose or concentration left out as unconfirmed. To be noted: NR1111/NR2A.
The target of a further assay is NR1010/NR2A (Rattus norvegicus, UniProt P35439+Q00959). Also noted: agonist nHill / agonist Emax: dose or concentration left out as unconfirmed. To be noted: NR1010/NR2A.
The target in another assay is NR1100/NR2A (Rattus norvegicus, UniProt P35439+Q00959). Also noted: agonist nHill / agonist Emax: dose or concentration left out as unconfirmed. Particulars: NR1100/NR2A.
The next assay has as its target NR1001/NR2A (Rattus norvegicus, UniProt P35439+Q00959). Also noted: agonist Emax: dose or concentration left out as unconfirmed. To be noted: NR1001/NR2A.

In general, pEC50 refers to the negative decadic logarithm of the EC50, by convention in mol/L.

pEC50: −log10 of the molar value. Read-outs that look alike come from different tables or passages of the source.

T3 sequence (P19492 23-888): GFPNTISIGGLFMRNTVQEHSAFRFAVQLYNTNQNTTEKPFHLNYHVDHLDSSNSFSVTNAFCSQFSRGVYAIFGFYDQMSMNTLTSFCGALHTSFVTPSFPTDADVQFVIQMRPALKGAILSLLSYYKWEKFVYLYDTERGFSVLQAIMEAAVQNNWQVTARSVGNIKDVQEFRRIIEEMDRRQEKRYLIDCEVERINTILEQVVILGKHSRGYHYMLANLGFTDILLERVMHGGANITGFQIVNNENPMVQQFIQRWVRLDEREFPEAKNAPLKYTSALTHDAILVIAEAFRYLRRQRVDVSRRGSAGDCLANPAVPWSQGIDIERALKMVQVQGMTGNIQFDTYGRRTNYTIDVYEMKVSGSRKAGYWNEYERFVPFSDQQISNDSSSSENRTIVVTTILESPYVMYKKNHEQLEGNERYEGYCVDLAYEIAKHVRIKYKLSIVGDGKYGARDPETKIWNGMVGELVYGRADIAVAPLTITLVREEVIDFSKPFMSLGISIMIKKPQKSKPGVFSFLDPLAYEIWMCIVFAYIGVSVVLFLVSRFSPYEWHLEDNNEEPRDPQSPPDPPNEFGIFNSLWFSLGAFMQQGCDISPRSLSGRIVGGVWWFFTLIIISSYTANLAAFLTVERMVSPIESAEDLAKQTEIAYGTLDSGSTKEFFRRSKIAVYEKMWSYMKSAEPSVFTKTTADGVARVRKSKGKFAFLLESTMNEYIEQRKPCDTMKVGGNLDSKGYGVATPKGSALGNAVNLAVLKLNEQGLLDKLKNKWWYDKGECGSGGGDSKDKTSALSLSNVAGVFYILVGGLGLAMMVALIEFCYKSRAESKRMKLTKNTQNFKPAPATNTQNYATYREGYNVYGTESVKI
Chain of NR1/NR2C (NR1100) (Q00961 20-1237, other chains not shown): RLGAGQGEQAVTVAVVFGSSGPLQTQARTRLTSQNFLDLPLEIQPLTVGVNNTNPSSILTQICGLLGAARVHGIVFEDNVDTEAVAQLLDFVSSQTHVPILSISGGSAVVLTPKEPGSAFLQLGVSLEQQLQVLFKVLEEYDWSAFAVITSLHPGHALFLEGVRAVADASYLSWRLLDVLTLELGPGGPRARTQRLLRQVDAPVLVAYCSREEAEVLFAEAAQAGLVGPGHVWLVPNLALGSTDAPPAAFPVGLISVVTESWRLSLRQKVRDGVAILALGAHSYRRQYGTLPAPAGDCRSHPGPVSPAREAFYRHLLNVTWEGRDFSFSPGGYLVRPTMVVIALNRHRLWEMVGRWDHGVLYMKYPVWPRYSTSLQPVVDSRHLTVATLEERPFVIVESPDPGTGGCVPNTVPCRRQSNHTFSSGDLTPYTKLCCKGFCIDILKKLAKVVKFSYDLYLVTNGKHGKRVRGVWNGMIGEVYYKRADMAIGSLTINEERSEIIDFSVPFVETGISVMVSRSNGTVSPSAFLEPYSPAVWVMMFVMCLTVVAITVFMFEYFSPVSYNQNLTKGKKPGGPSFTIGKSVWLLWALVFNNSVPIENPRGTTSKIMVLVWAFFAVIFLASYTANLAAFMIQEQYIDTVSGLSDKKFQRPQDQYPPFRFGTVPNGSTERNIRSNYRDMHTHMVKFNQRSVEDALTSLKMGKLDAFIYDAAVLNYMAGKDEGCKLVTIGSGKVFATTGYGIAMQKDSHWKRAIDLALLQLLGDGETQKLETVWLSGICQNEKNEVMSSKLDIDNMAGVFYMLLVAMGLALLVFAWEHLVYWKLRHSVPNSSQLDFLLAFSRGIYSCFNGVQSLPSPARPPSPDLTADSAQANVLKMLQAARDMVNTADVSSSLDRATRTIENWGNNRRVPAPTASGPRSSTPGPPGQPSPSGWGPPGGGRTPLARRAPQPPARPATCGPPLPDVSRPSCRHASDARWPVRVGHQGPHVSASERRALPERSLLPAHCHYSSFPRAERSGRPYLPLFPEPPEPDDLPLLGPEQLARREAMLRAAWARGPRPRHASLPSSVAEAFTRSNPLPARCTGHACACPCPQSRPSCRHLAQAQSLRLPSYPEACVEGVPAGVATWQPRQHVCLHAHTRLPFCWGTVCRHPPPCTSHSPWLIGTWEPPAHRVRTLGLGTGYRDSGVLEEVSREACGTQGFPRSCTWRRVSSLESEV
Chain of NR1111/NR2A (Q00959 23-1464, other chains not shown): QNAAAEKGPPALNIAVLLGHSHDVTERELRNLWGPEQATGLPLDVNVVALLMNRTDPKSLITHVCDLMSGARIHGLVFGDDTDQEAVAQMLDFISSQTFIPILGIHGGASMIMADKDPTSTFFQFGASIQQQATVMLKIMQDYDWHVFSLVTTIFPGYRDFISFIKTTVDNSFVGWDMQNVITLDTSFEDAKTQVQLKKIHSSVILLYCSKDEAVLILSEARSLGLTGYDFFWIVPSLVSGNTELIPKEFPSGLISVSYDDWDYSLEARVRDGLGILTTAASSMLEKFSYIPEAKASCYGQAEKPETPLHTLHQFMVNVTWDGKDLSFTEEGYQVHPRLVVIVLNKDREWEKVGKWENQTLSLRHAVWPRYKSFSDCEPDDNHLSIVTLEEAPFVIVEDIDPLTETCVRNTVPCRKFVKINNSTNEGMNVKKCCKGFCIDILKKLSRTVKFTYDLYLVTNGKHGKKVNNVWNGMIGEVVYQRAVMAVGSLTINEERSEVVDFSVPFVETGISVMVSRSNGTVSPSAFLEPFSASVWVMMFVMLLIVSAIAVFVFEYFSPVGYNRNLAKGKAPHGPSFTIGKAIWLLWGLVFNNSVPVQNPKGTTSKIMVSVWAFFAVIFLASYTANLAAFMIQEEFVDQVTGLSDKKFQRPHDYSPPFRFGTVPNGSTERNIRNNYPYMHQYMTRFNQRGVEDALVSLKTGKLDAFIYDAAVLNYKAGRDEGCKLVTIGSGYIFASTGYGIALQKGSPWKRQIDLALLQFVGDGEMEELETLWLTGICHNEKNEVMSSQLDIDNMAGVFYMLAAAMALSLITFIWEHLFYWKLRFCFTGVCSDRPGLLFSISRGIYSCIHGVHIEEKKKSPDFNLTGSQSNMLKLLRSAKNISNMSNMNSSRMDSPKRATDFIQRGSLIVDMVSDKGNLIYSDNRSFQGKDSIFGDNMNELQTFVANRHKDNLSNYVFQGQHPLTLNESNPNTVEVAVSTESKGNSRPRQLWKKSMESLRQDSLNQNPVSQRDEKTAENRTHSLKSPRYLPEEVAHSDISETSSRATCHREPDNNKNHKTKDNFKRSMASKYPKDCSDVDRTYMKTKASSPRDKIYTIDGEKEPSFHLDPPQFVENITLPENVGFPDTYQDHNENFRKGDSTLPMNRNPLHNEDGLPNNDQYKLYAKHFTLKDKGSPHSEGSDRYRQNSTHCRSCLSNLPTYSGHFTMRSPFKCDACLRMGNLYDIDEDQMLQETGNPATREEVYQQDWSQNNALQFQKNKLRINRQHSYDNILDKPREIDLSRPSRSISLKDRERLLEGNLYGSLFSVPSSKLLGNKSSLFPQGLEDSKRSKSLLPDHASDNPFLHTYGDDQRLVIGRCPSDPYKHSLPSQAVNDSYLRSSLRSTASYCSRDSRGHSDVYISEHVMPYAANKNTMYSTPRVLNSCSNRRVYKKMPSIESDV
Chain of NR1010/NR2A (Q00959 23-1464, other chains not shown): as above
Source text for NR1/NR2A (NR1100): (§5) Plasmids containing the NR1100 (NR1G) and NR2A cDNA inserts were kindly provided by Dr. Nakanishi (Kyoto University Faculty of Medicine, Kyoto, Japan). Plasmids containing the NR2B, NR2C and NR2D cDNA inserts were kindly provided by Dr. P. Seeburg (Heidelberg University, Heidelberg, Germany). Plasmids were linearized with appropriate restriction enzyme prior to in vitro transcription using the Message Machine kit (Ambion, Inc., Austin, Tex.).
(§6) Female, oocyte-positive Xenopus laevis frogs were purchased from Xenopus I (Dexter, Mich.). […] Oocytes were injected with 50 nL of RNA solutions using an electronic microinjector (Drummond Inc., Broomall, Pa.). […] The injected oocytes were used for experiments following 1-5 days of incubation in Barth's solution at 18-20° C.
(§7) The microelectrodes were fabricated from borosilicate glass capillaries with a programmed puller (Sutter Instrument Co., Calif.). Microelectrode resistance was 1-3 MΩ_when filled with 3 M KCl.
(§8) Except where otherwise stated, oocytes were clamped at a holding potential of −70 mV during data acquisition. The membrane current was filtered at 500 Hz and sampled at 100 Hz. Drugs were applied using a gravity-driven external perfusion system. The working volume of the recording chamber was 30 μl and the rate of the perfusion was 50 μl/sec. The drug application lasted 10 sec and was followed by 60 s wash. Data acquisition and external perfusion were controlled using custom-written software implemented in the SuperScope II development environment (GW Instruments, Mass.). All experiments were performed at room temperature of 22-24° C. Peak or steady-state current measurements were normalized and expressed as a fraction of the peak or steady-state control current measurements, which were performed before and after application of every single concentration of agonists or steroids.
(§9) Concentration-response data were analyzed by nonlinear regress ion using the logistic equation Response=Emax/(1+(EC50/c)^nH), where c is concentration, Emaxis the maximum response, nHis the Hill coefficient. The data are presented as mean±SEM. EC50values are averaged as logarithms (De Lean et al., Am. J. Physiol. 235: E97-E102 (1978))±the SEM of the log EC50. […] The pooled data were simultaneously fitted to the logistic equation, either with Emax and EC50 constrained to be identical in the presence and absence of PS, or allowing one or both to vary independently. […] This was regarded as indicating a significant treatment effect of PS, but the change in EC50and Emaxwas not considered significant. […] No attempt was made to test the generally small changes in nHfor statistical significance.
Source text for NR1/NR2B (NR1100): as §5, §6, §7, §8, §9
Source text for NR1/NR2C (NR1100): as §5, §6, §7, §8, §9
Source text for NR1/NR2D (NR1100): as §5, §6, §7, §8, §9

Regarding `C[C@]12CC[C@@H]3c4ccc(OS(=O)(=O)O)cc4CC[C@H]3[C@@H]1CC[C@H]2O` [17α-Estradiol-3-sulfate], the “Percentage change in kainate response” value is listed as −22 ± 3(3) % at GluR1 AMPA receptor, −7 ± 1(5) % at GluR6 kainate receptor and −17 ± 2(3) % at GluR3 AMPA receptor.

On to `C[C@]12CC[C@@H]3c4ccc(OS(=O)(=O)O)cc4CC[C@H]3[C@@H]1CC[C@@H]2O` [17β-Estradiol-3-sulfate], for which the figures for the “inhibition of the response to kainate” value at GluR1 AMPA receptor, against GluR6 kainate receptor and against GluR3 AMPA receptor were “no effect”, 12% and “no effect”, respectively. Also, the entries for the “Percentage change in kainate response” value at GluR1 AMPA receptor, at GluR6 kainate receptor and on GluR3 AMPA receptor were −2 ± 2(3) %, −13 ± 4(4) % and −8 ± 4(3) %, respectively. Further, in assay [1], the “Percentage change in NMDA response” value is recorded as “+12 ± 3(4) %”.

Turning to `C[C@]12CC[C@H](O)CC1=CC[C@@H]1[C@@H]2CC[C@]2(C)C(=O)CC[C@@H]12` [Dehydroepiandrosterone], the figures for the “Percentage change in kainate response” value on GluR1 AMPA receptor, on GluR6 kainate receptor and on GluR3 AMPA receptor were −16 ± 3(3) %, −5 ± 1(3) % and −7 ± 5(3) %, respectively.

With `N[C@@H](CCC(=O)O)C(=O)O` [L-glutamate], the “agonist Emax” value on NR1101/NR2A (absence of PS) is 1.77 ± 0.09; on NR1101/NR2A (presence of PS), 2.72 ± 0.07; on NR1/NR2C (NR1100) (+100 μM PS), 0.87; at NR1/NR2C (NR1100) (no PS) it was 1.31 ± 0.02; on NR1011/NR2A (absence of PS), 1.59 ± 0.03; on NR1011/NR2A (presence of PS), 2.08 ± 0.21. Also, the “agonist Emax” value on NR1/NR2D (NR1100) (+100 μM PS) is listed as 0.80; on NR1/NR2D (NR1100) (no PS), 1.10 ± 0.03; at NR1000/NR2A (absence of PS), 1.75 ± 0.02; at NR1000/NR2A (presence of PS) it was 2.92 ± 0.03; on NR1/NR2B (NR1100) (+100 μM PS), 1.34 ± 0.07; on NR1/NR2B (NR1100) (no PS) it was 1.23 ± 0.04. For the same compound, the “agonist Emax” value on NR1111/NR2A (absence of PS) is 1.87 ± 0.12; on NR1111/NR2A (presence of PS), 2.62 ± 0.27; on NR1010/NR2A (absence of PS), 1.48 ± 0.03; at NR1100/NR2A (absence of PS), 1.50 ± 0.04; on NR1100/NR2A (presence) it was 2.30 ± 0.21; on NR1001/NR2A (absence of PS) it was 2.10 ± 0.12. Further, the “agonist Emax” value at NR1001/NR2A (presence of PS) is reported as 2.85 ± .26; on NR1/NR2A (NR1100) (+100 μM PS), 2.3 ± 0.2; at NR1/NR2A (NR1100) (no PS, normalized to 200 μM NMDA plus 10 μM glycine), 1.50. Besides, the pEC50 at NR1/NR2C (NR1100) (+100 μM PS) was 7.22; at NR1/NR2C (NR1100) (no PS), 7.12; at NR1/NR2D (NR1100) (read-out: agonist EC50, +100 μM PS), 7.43; on NR1/NR2D (NR1100) (read-out: agonist EC50, no PS) it was 7.60. Besides, the “agonist nH” value at NR1/NR2B (NR1100) (no PS) was 1.14 ± 0.10; on NR1/NR2A (NR1100) (+100 μM PS) it was 0.98 ± 0.06; at NR1/NR2A (NR1100) (no PS), 1.15 ± 0.04. The “agonist nHill” value at NR1111/NR2A (absence of PS) worked out at 1.39 ± 0.02; at NR1010/NR2A (absence of PS), 1.32 ± 0.14; at NR1010/NR2A (presence of PS) it was 1.59 ± 0.15; at NR1100/NR2A (absence of PS), 1.15 ± 0.04; at NR1100/NR2A (presence), 0.98 ± 0.06; at NR1001/NR2A (presence of 100 mM PS), 1.57 ± 0.18.

As to `NCC(=O)O` [glycine], the “agonist Emax” value at NR1101/NR2A (absence of PS) stood at 1.63 ± 0.04; at NR1101/NR2A (presence of PS), 2.46 ± 0.23; on NR1/NR2C (NR1100) (+100 μM PS), 0.87; on NR1011/NR2A (presence of PS) it was 2.24 ± 0.29; at NR1/NR2D (NR1100) (+100 μM PS) it was 0.74; at NR1/NR2D (NR1100) (no PS) it was 1.22 ± 0.05. The “agonist Emax” value on NR1000/NR2A (absence of PS) was 1.48 ± 0.04; at NR1000/NR2A (presence of PS) it was 2.88 ± 0.27; at NR1/NR2B (NR1100) (+100 μM PS), 1.63 ± 0.04; on NR1111/NR2A (absence of PS), 1.93 ± 0.07; on NR1111/NR2A (presence of PS), 2.68 ± 0.16; on NR1010/NR2A (absence of PS), 1.51 ± 0.07. The “agonist Emax” value on NR1010/NR2A (presence of PS) was found to be 1.92 ± 0.19; at NR1100/NR2A (absence of PS), 1.52 ± 0.07; at NR1100/NR2A (presence), 2.34 ± 0.09; on NR1001/NR2A (absence of PS), 1.89 ± 0.20; at NR1001/NR2A (presence of PS) it was 2.77 ± 0.40; at NR1/NR2A (NR1100) (+100 μM PS) it was 2.34. The “agonist nH” value is on record as 1.11 ± 0.12 on NR1/NR2C (NR1100) (+100 μM PS); 0.95 ± 0.01 at NR1/NR2D (NR1100) (+100 μM PS); 1.15 ± 0.03 at NR1/NR2B (NR1100) (+100 μM PS); 1.09 ± 0.04 on NR1/NR2B (NR1100) (no PS); 1.03 ± 0.05 at NR1/NR2A (NR1100) (+100 μM PS). The “agonist nHill” value at NR1000/NR2A (absence of PS) is listed as 0.90 ± 0.01; at NR1010/NR2A (presence of PS), 1.38 ± 0.10; on NR1100/NR2A (presence), 1.03 ± 0.05.

As to Dehydroepiandrosterone sulfate, the figures for the “Percentage change in kainate response” value on GluR1 AMPA receptor, on GluR6 kainate receptor and at GluR3 AMPA receptor were −23 ± 3(3) %, −17 ± 5(3) % and −7 ± 1(4) %, respectively. For the same compound, the “Percentage change in NMDA response” value in [1] is reported as “+8 ± 13(3) %”.
